The values below come from patent publication US10035800B2 (AbbVie Inc., priority 2013, dated 2018).

pEC50, pKi: −log10 of the molar value. Where only a bound is given, the exact number is not on record here.

One experiment addresses T1, BRD4 (BDI_K57-E168) (Homo sapiens, UniProt O60885).
T1 construct: BD1: amino acids K57-E168; made in house
The experiment in a line: TR-FRET bromodomain binding assay, first bromodomain of BRD4. The settings on record: 100 nM probe. The method, boiled down: (§1)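 Ki values derive from IC50s using probe Kd and concentration, with IC50s fitted to normalized TR-FRET ratios (Ex 340/Em 495, 520). Compounds competed against an Alexa647-labelled BET-inhibitor (100 nM BDI, 30 nM BDII) for 8 nM His-tagged bromodomain bound by Eu-anti-His antibody, 1 h, room temperature, pH 6.0.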
(Time-resolved FRET reads energy transfer from a long-lived donor to a nearby acceptor.)

The subject of experiment [1] is breast cancer cell line MX-1. Kind of experiment: MX-1 cell line proliferation assay. The format is cell-based. The settings on record: MX-1 cells, 3-day proliferation assay, Cell Titer Glo; read-out: Cellular proliferation: EC50. Here is the method:
MX-1 Cell Line Proliferation Assay
The impact of compounds of the Examples on cancer cell proliferation was determined using the breast cancer cell line MX-1 (ATCC) in a 3-day proliferation assay and the data are reported in Table 1. MX-1 cells were maintained in RPMI 1640 medium (Sigma) supplemented with 10% FBS at 37 C.° and an atmosphere of 5% CO2. For compound testing, MX-1 cells were plated in 96-well black bottom plates at a density of 5000 cells/well in 90 μL of culture media and incubated at 37° overnight to allow cell adhesion and spreading. Compound dilution series were prepared in DMSO via a 3-fold serial dilution from 3 mM to 0.1 μM. The DMSO dilution series were then diluted 1:100 in phosphate buffered saline, and 10 μL of the resulted solution were added to the appropriate wells of the MX-1 cell plate. The final compound concentrations in the wells were 3, 1, 0.3, 0.1, 0.03, 0.01, 0.003, 0.001, 0.0003, and 0.0001 μM or 1, 0.3, 0.1, 0.03, 0.01, 0.003, 0.001, 0.0003, 0.0001, and 0.00003 μM.
Luminescence readings from the Cell Titer Glo assay were normalized to the DMSO treated cells and analyzed using the GraphPad Prism software with sigmoidal curve fitting to obtain EC50s. The minimum significant ratio (MSR) was determined to evaluate assay reproducibility (Eastwood et al., (2006) J Biomol Screen, 11: 253-261). The overall MSR was determined to be 2.1 and a moving MSR (last six run MSR overtime) has been <2.
In general terms: ATP-based viability assays read luminescence as a measure of living cells.

Another experiment has as its target T2, BRD4 (BDII_E352-M457) (Homo sapiens, UniProt O60885).
T2 construct: protocol; made in house
The experiment in a line: TR-FRET bromodomain binding assay, second bromodomain of BRD4. The note with it: 30 nM probe. In outline: as §1

Where [2] appears, read: TR-FRET assay protocol G (compound 0.92 μM-15 pM).
The mark [3] stands for this setting: TR-FRET assay protocol E (compound 9.19 μM-150 pM).

In the case of “4-(6-methoxypyridin-2-yl)-10-methyl-7-((methylsulfonyl)methyl)-3,4-dihydro-1H-1,4,10-triazadibenzo[cd,f]azulen-11(10H)-one [Example 256]”, the pKi on BRD4 (BDI_K57-E168) (setting [2]) is 9.23; at BRD4 (BDII_E352-M457) (setting [2]) it was 9.27. In experiment [1], the pEC50 is 9.46.

Take “4-([1,1′-biphenyl]-4-carbonyl)-10-methyl-7-((methylsulfonyl)methyl)-3,4-dihydro-1H-1,4,10-triazadibenzo[cd,f]azulen-11(10H)-one [Example 102]”: the pKi is 8.03 at BRD4 (BDI_K57-E168) (setting [2]) and 7.57 on BRD4 (BDII_E352-M457) (setting [2]). For the same compound, the pEC50 in experiment [1] was 6.82.

With “4-(cyclopropylmethyl)-7-(isopropylsulfonyl)-10-methyl-3,4-dihydro-1H-1,4,10-triazadibenzo[cd,f]azulen-11(10H)-one [Example 1]”, the pKi is 7.49 at BRD4 (BDI_K57-E168) (setting [3]) and 7.98 at BRD4 (BDII_E352-M457) (setting [3]). Also, in experiment [1], the pEC50 is 7.57.

As for “10-methyl-4-(pyridin-2-yl)-7-(pyrrolidin-1-ylsulfonyl)-3,4-dihydro-1H-1,4,5,10-tetraazadibenzo[cd,f]azulen-11(10H)-one [Example 266]”, the results for the pKi at BRD4 (BDI_K57-E168) (setting [2]) and on BRD4 (BDII_E352-M457) (setting [2]) were 7.75 and 8.09, respectively. Besides, the pEC50 in experiment [1] is 7.37.

Take “10-methyl-7-((methylsulfonyl)methyl)-4-(piperidin-4-ylmethyl)-3,4-dihydro-1H-1,4,10-triazadibenzo[cd,f]azulen-11(10H)-one [Example 37]”: the negative-log Ki (pKi) at BRD4 (BDI_K57-E168) (setting [2]) was 8.47; on BRD4 (BDII_E352-M457) (setting [2]), 8.62. Further, the pEC50 in experiment [1] was less than 6.00.

As for “10-methyl-7-((methylsulfonyl)methyl)-4-(pyrimidin-4-yl)-3,4-dihydro-1H-1,4,10-triazadibenzo[cd,f]azulen-11(10H)-one [Example 259]”, the pKi on BRD4 (BDI_K57-E168) (setting [2]) was 8.47; at BRD4 (BDII_E352-M457) (setting [2]) it was 8.52. Further, in experiment [1], the pEC50 is 7.72.

On to `Cn1cc2c3c(c[nH]c3c1=O)CN(C1CCC(N)CC1)c1ccc(CS(C)(=O)=O)cc1-2` (mixture of isomers) [Example 212, 4-(4-aminocyclohexyl)-10-methyl-7-((methylsulfonyl)methyl)-3,4-dihydro-1H-1,4,10-triazadibenzo[cd,f]azulen-11(10H)-one], for which the results for the pKi on BRD4 (BDI_K57-E168) (setting [2]) and on BRD4 (BDII_E352-M457) (setting [2]) were 8.62 and 8.30, respectively. Further, the pEC50 in experiment [1] is 6.81.

Consider `CC(=O)NC1CCC(N2Cc3c[nH]c4c(=O)n(C)cc(c34)-c3cc(CS(C)(=O)=O)ccc32)CC1` (mixture of isomers) [Example 243, N-(4-(10-methyl-7-((methylsulfonyl)methyl)-11-oxo-10,11-dihydro-1H-1,4,10-triazadibenzo[cd,f]azulen-4(3H)-yl)cyclohexyl)acetamide], for which the pKi was 8.73 on BRD4 (BDI_K57-E168) (setting [2]) and 8.46 on BRD4 (BDII_E352-M457) (setting [2]). The pEC50 in experiment [1] was 6.82.

Turning to `CC(C)CC1Nc2ccc(CS(C)(=O)=O)cc2-c2cn(C)c(=O)c3[nH]cc1c23` (racemic) [Example 19, 3-isobutyl-10-methyl-7-((methylsulfonyl)methyl)-3,4-dihydro-1H-1,4,10-triazadibenzo[cd,f]azulen-11(10H)-one], the results for the pKi on BRD4 (BDI_K57-E168) (setting [3]) and on BRD4 (BDII_E352-M457) (setting [3]) were 6.61 and 7.36, respectively. Also, the pEC50 in experiment [1] was 6.43.

Turning to `Cn1cc2c3c(c[nH]c3c1=O)C(/C=C/c1ccc(F)cc1)Nc1ccc(CS(C)(=O)=O)cc1-2` (racemic) [Example 20, (E)-3-(4-fluorostyryl)-10-methyl-7-((methylsulfonyl)methyl)-3,4-dihydro-1H-1,4,10-triazadibenzo[cd,f]azulen-11(10H)-one], the pKi was 6.80 at BRD4 (BDI_K57-E168) (setting [3]) and 7.61 on BRD4 (BDII_E352-M457) (setting [3]). Also, the pEC50 in experiment [1] was 6.26.

On to `Cn1cc2c3c(c[nH]c3c1=O)CN(CC1CCN(C(=O)OC(C)(C)C)C1)c1ccc(CS(C)(=O)=O)cc1-2` (racemic) [Example 25, tert-butyl 3-((10-methyl-7-((methylsulfonyl)methyl)-11-oxo-10,11-dihydro-1H-1,4,10-triazadibenzo[cd,f]azulen-4(3H)-yl)methyl)pyrrolidine-1-carboxylate], for which the pKi was 8.76 on BRD4 (BDI_K57-E168) (setting [3]) and 9.07 on BRD4 (BDII_E352-M457) (setting [3]). Besides, the pEC50 in experiment [1] is 8.06.

Consider `CCOC(=O)C1c2c[nH]c3c(=O)n(C)cc(c23)-c2cc(CS(C)(=O)=O)ccc2N1c1ccc(F)cc1` (racemic) [Example 34, ethyl 4-(4-fluorophenyl)-10-methyl-7-((methylsulfonyl)methyl)-11-oxo-3,4,10,11-tetrahydro-1H-1,4,10-triazadibenzo[cd,f]azulene-3-carboxylate], for which the pKi on BRD4 (BDI_K57-E168) (setting [2]) was 8.61; on BRD4 (BDII_E352-M457) (setting [2]) it was 8.41. Further, the pEC50 in experiment [1] was 7.83.

As to `Cn1cc2c3c(c[nH]c3c1=O)C(C(=O)NCc1ccccc1)N(c1ccc(F)cc1F)c1ccc(CS(C)(=O)=O)cc1-2` (racemic) [Example 159, N-benzyl-4-(2,4-difluorophenyl)-10-methyl-7-((methylsulfonyl)methyl)-11-oxo-3,4,10,11-tetrahydro-1H-1,4,10-triazadibenzo[cd,f]azulene-3-carboxamide], the pKi at BRD4 (BDI_K57-E168) (setting [2]) is 7.41; on BRD4 (BDII_E352-M457) (setting [2]), 7.70. Further, the pEC50 in experiment [1] was 7.24.

On to `CN(C)CCCC1c2c[nH]c3c(=O)n(C)cc(c23)-c2cc(CS(C)(=O)=O)ccc2N1c1ccc(F)cc1F` (racemic) [Example 175, 4-(2,4-difluorophenyl)-3-(3-(dimethylamino)propyl)-10-methyl-7-((methylsulfonyl)methyl)-3,4-dihydro-1H-1,4,10-triazadibenzo[cd,f]azulen-11(10H)-one], for which the negative-log Ki (pKi) is 7.82 on BRD4 (BDI_K57-E168) (setting [2]) and 8.72 at BRD4 (BDII_E352-M457) (setting [2]). Besides, the pEC50 in experiment [1] was 7.00.

Regarding `COc1cccc(OC)c1C1c2c[nH]c3c(=O)n(C)cc(c23)-c2cc(CS(C)(=O)=O)ccc2N1c1ccc(F)cc1F` (racemic) [Example 221, 4-(2,4-difluorophenyl)-3-(2,6-dimethoxyphenyl)-10-methyl-7-((methylsulfonyl)methyl)-3,4-dihydro-1H-1,4,10-triazadibenzo[cd,f]azulen-11(10H)-one], the pKi is 7.50 on BRD4 (BDI_K57-E168) (setting [2]) and 7.91 on BRD4 (BDII_E352-M457) (setting [2]). For the same compound, in experiment [1], the pEC50 was 7.48.

For `Cn1cc2c3c(c[nH]c3c1=O)C(CCN1C(=O)c3ccccc3C1=O)N(c1ccc(F)cc1F)c1ccc(CS(C)(=O)=O)cc1-2` (racemic) [Example 227, 2-(2-(4-(2,4-difluorophenyl)-10-methyl-7-((methylsulfonyl)methyl)-11-oxo-3,4,10,11-tetrahydro-1H-1,4,10-triazadibenzo[cd,f]azulen-3-yl)ethyl)isoindoline-1,3-dione], the pKi at BRD4 (BDI_K57-E168) (setting [2]) was 8.10; on BRD4 (BDII_E352-M457) (setting [2]) it was 8.93. Further, the pEC50 in experiment [1] was 6.87.

As to `Cn1cc2c3c(c[nH]c3c1=O)C(CCNC(=O)OCc1ccccc1)N(c1ccc(F)cc1F)c1ccc(CS(C)(=O)=O)cc1-2` (racemic) [Example 229, benzyl (2-(4-(2,4-difluorophenyl)-10-methyl-7-((methylsulfonyl)methyl)-11-oxo-3,4,10,11-tetrahydro-1H-1,4,10-triazadibenzo[cd,f]azulen-3-yl)ethyl)carbamate], the pKi on BRD4 (BDI_K57-E168) (setting [2]) was 8.39; at BRD4 (BDII_E352-M457) (setting [2]), 8.71. For the same compound, the pEC50 in experiment [1] is 7.39.

As for `Cn1cc2c3c(c[nH]c3c1=O)C(c1ccc(-n3ccnc3)cc1)N(c1ccc(F)cc1F)c1ccc(CS(C)(=O)=O)cc1-2` (racemic) [Example 234, 3-(4-(1H-imidazol-1-yl)phenyl)-4-(2,4-difluorophenyl)-10-methyl-7-((methylsulfonyl)methyl)-3,4-dihydro-1H-1,4,10-triazadibenzo[cd,f]azulen-11(10H)-one], the pKi was 7.99 at BRD4 (BDI_K57-E168) (setting [2]) and 8.03 on BRD4 (BDII_E352-M457) (setting [2]). Moreover, the pEC50 in experiment [1] is less than 6.00.

On to `Cn1cc2c3c(c[nH]c3c1=O)C(c1ccc(C#N)cc1)N(c1ccc(F)cc1F)c1ccc(CS(C)(=O)=O)cc1-2` (racemic) [Example 235, 4-(4-(2,4-difluorophenyl)-10-methyl-7-((methylsulfonyl)methyl)-11-oxo-3,4,10,11-tetrahydro-1H-1,4,10-triazadibenzo[cd,f]azulen-3-yl)benzonitrile], for which the pKi at BRD4 (BDI_K57-E168) (setting [2]) was 7.79; on BRD4 (BDII_E352-M457) (setting [2]), 8.19. For the same compound, in experiment [1], the pEC50 is 6.79.

The pKi is −log10 of the Ki, conventionally taken in molar units.
